These results are taken from patent publication US20240315958A1, “METHOD AND DEVICE FOR PROVIDING EFFECTIVE CONTRACEPTION” (Chemo Research, S.L., priority 2023, published 2024).

In one data set the test system is women. The settings on record: POP; desogestrel 0.075 mg, LNG 0.030 mg; cited from earlier work.
Data set [1] has as its system healthy female subjects aged 18-35 years. Kind of data set: Inhibition of ovulation / ovarian activity by Hoogland score, phase 2 clinical trial. The data set is classed as in vivo, human. As to conditions: 75 μg/day of levonorgestrel, vaginal. The method, then: The study consists of 4 phases: • Screening phase (minimum of 4 weeks and maximum of 8 weeks if washout cycle was needed). • Pre-treatment cycle (28 days) and randomization. • Treatment cycle consisting of 56 treatment days (2 cycles, 28 days per cycle). • Post-treatment cycle (28 days).
The inhibition of ovulation was determined by the calculation of the Hoogland Score, which combined the measurement of follicle size in mm by TVU and progesterone/estradiol serum concentration in nmol/L (in case an ovulation was suspected sonographically in TC1 or TC2, it was confirmed by blood progesterone levels and reflected by Landgren Score).
Primary endpoint analysis: the inhibition of ovulation (Yes, No), was analyzed through a logistic regression model to compare inhibition of ovulation across treatment groups in which BMI was included as covariate. Adjusted odds ratios (ORs) with their two-sided 95% CI were calculated. No hypothesis testing was performed.

The test system is the same in data set [2]. The experiment in a line: Return of ovulation in post-treatment cycle. In kind it is in vivo, human. The settings on record: FAS; 28-day post-treatment cycle.
For data set [3] the following is noted: oral administration; cited from earlier work.

The structures appear in SMILES notation.

As to `C#C[C@]1(O)CC[C@H]2[C@@H]3CCC4=CCCC[C@@H]4[C@H]3C(=C)C[C@@]21CC` [desogestrel], the “Cycles with ovulation inhibited” value in the data set on women is listed as “at least 98%”.
`C#C[C@]1(O)CC[C@H]2[C@@H]3CCC4=CC(=O)CC[C@@H]4[C@H]3CC[C@@]21CC` [levonorgestrel]: the Ovulation inhibition in data set [1] is 100%. The “Participants with return of ovulation during post-treatment, %” value in data set [2] is reported as “more than 80%”. Moreover, in data set [3], the Bioavailability was approximately 100%.
